How the values were obtained:
[1] = molecular target: T1, GST tagged LXRbeta LBD (ligand binding domain) (Homo sapiens, UniProt P55055); experiment: LanthaScreen TR-FRET Liver X Receptor Coactivator Assay, LXR beta-LBD (co-activator recruitment; IP and % Emax relative to T0901317); type: biochemical; conditions: for EC50: Inflection Point of co-activator recruitment, LXR beta-LBD, TR-FRET; for Emax: efficacy at max dose in relation to reference T0901317, LXR beta-LBD, read-out: LXR beta actiivty at max dose (%)
T1 construct: purchased Invitrogen pv4658.pps
T1 sequence (P55055 222-460 limits assumed): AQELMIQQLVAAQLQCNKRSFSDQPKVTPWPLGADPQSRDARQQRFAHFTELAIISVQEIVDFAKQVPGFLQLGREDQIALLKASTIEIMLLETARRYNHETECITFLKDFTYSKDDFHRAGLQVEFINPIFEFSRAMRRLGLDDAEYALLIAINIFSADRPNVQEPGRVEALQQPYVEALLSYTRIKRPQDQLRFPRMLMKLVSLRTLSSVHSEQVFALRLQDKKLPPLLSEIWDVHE
Protocol: (§1) Potency (Inflection Point, IP) and efficacy (Emax) are evaluated via compound-induced co-activator recruitment to glutathione-S-transferase (GST) tagged LXRbeta and LXRalpha LBD (ligand binding domain) proteins in relation to reference dual agonist compound T0901317 (N-(2,2,2-Trifluoroethyl)-N-[4-[2,2,2-trifluoro-1-hydroxy-1-(trifluoromethyl)ethyl]phenyl]benzenesulfonamide) using the LanthaScreen™ TR-FRET Liver X Receptor Coactivator Assays according to manufacturer's instructions (Invitrogen catalog number pv4658.pps and pv4655). While running the LanthaScreen™ TR-FRET Liver X Receptor Coactivator Assay, LXR alpha-LBD or LXR beta-LBD was added to ligand test compounds followed by addition of a mixture of a fluorescein-labelled coactivator peptide and terbium-conjugated anti-GST antibody. After an incubation period at room temperature, TR-FRET (time-resolved fluorescence resonance energy transfer) was measured using a filter-based instrument capable of TR-FRET, e.g. PerkinElmer Envision.

[2] = molecular target: T2, GST tagged LXRalpha LBD (ligand binding domain) (Homo sapiens, UniProt Q13133); experiment: LanthaScreen TR-FRET Liver X Receptor Coactivator Assay, LXR alpha-LBD (co-activator recruitment; IP and % Emax relative to T0901317); type: biochemical; conditions: for EC50 / LXR alpha IP (nM): Inflection Point of co-activator recruitment, LXR alpha-LBD, TR-FRET; for Emax: efficacy at max dose in relation to reference T0901317, LXR alpha-LBD, read-out: LXR alpha actiivty at max dose (%)
T2 construct: purchased Invitrogen pv4655
T2 sequence (Q13133 209-447 limits assumed): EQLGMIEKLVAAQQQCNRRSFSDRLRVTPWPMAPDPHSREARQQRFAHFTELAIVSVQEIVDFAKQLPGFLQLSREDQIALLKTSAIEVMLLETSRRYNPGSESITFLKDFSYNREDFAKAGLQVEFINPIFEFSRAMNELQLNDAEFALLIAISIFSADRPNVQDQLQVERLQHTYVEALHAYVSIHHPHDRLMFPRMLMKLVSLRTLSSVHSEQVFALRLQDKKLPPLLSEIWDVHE
Protocol: as §1

Row | SMILES | EC50 [1] [nM] | Emax [1] [%] | EC50 [2] [nM] | Emax [2] [%] | LXR alpha IP (nM) [2]
1 | CN(C)C(=O)c1ccc(N2CCC(CCCN(C)C(=O)[C@]3(C(F)(F)F)CCCO3)CC2)nc1Cl [Example 1-8, (S)-2-chloro-N,N-dimethyl-6-(4-(3-(N-methyl-2-(trifluoromethyl)-tetrahydrofuran-2-carboxamido)propyl)piperidin-1-yl)nicotinamide] | 106 | 81 | 1770 | 51 | –
2 | CN(C)C(=O)c1ccc(N2CCC(CCCN(C)C(=O)[C@]3(c4ccccc4)CCCO3)CC2)nc1Cl [Example 1-10, (R)-2-chloro-N,N-dimethyl-6-(4-(3-(N-methyl-2-phenyl-tetrahydrofuran-2-carboxamido)propyl)piperidin-1-yl)nicotinamide] | 72 | 71 | – | 9 | No IP
3 | CN(C)C(=O)c1ccc(N2CCC(CCCN(C)C(=O)C3(c4ccccc4)OCCO3)CC2)nc1Cl [Example 1-14, 2-chloro-N,N-dimethyl-6-(4-(3-(N-methyl-2-phenyl-1,3-dioxolane-2-carboxamido)propyl)piperidin-1-yl)nicotinamide] | 366 | 19 | – | 0 | No IP
4 | CN(C)C(=O)c1ccc(N2CCC(CCCN(C)C(=O)C3(c4ccccc4)CCOCC3)CC2)nc1Cl [Example 1-17, 2-chloro-N,N-dimethyl-6-(4-(3-(N-methyl-4-phenyl-tetrahydro-2H-pyran-4-carboxamido)propyl)piperidin-1-yl)nicotinamide] | 290 | 55 | – | 7 | No IP
5 | CC(C)[C@@]1(C(=O)N(C)CCCC2CCN(c3ccc(C(=O)N(C)C)c(Cl)n3)CC2)CCCO1 [Example 1-18, (R)-2-chloro-6-(4-(3-(2-isopropyl-N-methyl-tetrahydrofuran-2-ycarboxamido)propyl)piperidin-1-yl)-N,N-dimethylnicotinamide] | 564 | 41 | – | 13 | No IP
6 | CC(C)[C@]1(C(=O)N(C)CCCC2CCN(c3ccc(C(=O)N(C)C)c(Cl)n3)CC2)CCCO1 [Example 1-19, (S)-2-chloro-6-(4-(3-(2-isopropyl-N-methyl-tetrahydrofuran-2-carboxamido)propyl)piperidin-1-yl)-N,N-dimethylnicotinamide] | 1040 | 41 | 17400 | 38 | –
7 | CN(C)C(=O)c1ccc(N2CCC(CCCN(C)C(=O)[C@](C)(O)c3ccccc3)CC2)nc1Cl [Example 1-20, (R)-2-chloro-6-(4-(3-(2-hydroxy-N-methyl-2-phenylpropanamido)propyl)piperidin-1-yl)-N,N-dimethylnicotinamide] | 508 | 32 | – | 6 | No IP
8 | CN(C)C(=O)c1ccc(N2CCC(CCCN(C)C(=O)[C@](O)(c3ccccc3)C3CCC3)CC2)nc1Cl [Example 1-22, (R)-2-chloro-6-(4-(3-(2-cyclobutyl-2-hydroxy-N-methyl-2-phenylaceetamido)propyl)piperidin-1-yl)-N,N-dimethylnicotinamide] | 64 | 94 | – | 9 | No IP
9 | CN(C)C(=O)c1ccc(N2CCC(CCCN(C)C(=O)[C@@](O)(c3ccccc3)C3CCC3)CC2)nc1Cl [Example 1-23, (S)-2-chloro-6-(4-(3-(2-cyclobutyl-2-hydroxy-N-methyl-2-phenylacetamido)propyl)piperidin-1-yl)-N,N-dimethylnicotinamide] | 64 | 90 | 1760 | 39 | –
10 | CN(C)C(=O)c1ccc(N2CCC(CCCN(C)C(=O)[C@](O)(c3ccccc3)C3CC3)CC2)nc1Cl [Example 1-24, (R)-2-chloro-6-(4-(3-(2-cyclopropyl-2-hydroxy-N-methyl-2-phenylacetamido)propyl)piperidin-1-yl)-N,N-dimethylnicotinamide] | 351 | 59 | – | 12 | No IP

The remaining lines, values ahead:

Row | EC50 [1] [nM] | Emax [1] [%] | EC50 [2] [nM] | Emax [2] [%] | LXR alpha IP (nM) [2] | SMILES
11 | 46 | 69 | – | 4 | No IP | COc1cccc([C@@](O)(C(=O)N(C)CCCC2CCN(c3ccc(C(=O)N(C)C)c(Cl)n3)CC2)C(F)(F)F)c1 [Example 1-9, (R)-2-chloro-N,N-dimethyl-6-(4-(3-(3,3,3-trifluoro-2-hydroxy-2-(3-methoxyphenyl)-N-methylpropanamido)propyl)piperidin-1-yl)nicotinamide]
12 | 453 | 59 | – | 0 | No IP | CN(C)C(=O)c1ccc(N2CCC(CCCN(C)C(=O)[C@@](O)(c3cc(F)cc(Cl)c3)C(F)(F)F)CC2)nc1Cl [Example 1-11, (S)-2-chloro-6-(4-(3-(2-(3-chloro-5-fluorophenyl)-3,3,3-trifluoro-2-hydroxy-N-methylpropanamido)propyl)piperidin-1-yl)-N,N-dimethylnicotinamide]
13 | 13 | 78 | 372 | 23 | – | CN(C)C(=O)c1ccc(N2CCC(CCCN(C)C(=O)[C@](O)(c3cc(F)cc(Cl)c3)C(F)(F)F)CC2)nc1Cl [Example 1-12, (R)-2-chloro-6-(4-(3-(2-(3-chloro-5-fluorophenyl)-3,3,3-trifluoro-2-hydroxy-N-methylpropanamido)propyl)piperidin-1-yl)-N,N-dimethylnicotinamide]
14 | 148 | 63 | – | 0 | No IP | COc1cccc([C@](O)(C(=O)N(C)CCCC2CCN(c3ccc(C(=O)N(C)C)c(Cl)n3)CC2)C(F)F)c1 [Example 1-13, (S)-2-chloro-6-(4-(3-(3,3-difluoro-2-hydroxy-2-(3-methoxyphenyl)-N-methylpropanamido)propyl)piperidin-1-yl)-N,N-dimethylnicotinamide]
15 | 76 | 55 | – | 0 | No IP | Cc1cccc([C@@](O)(C(=O)N(C)CCCC2CCN(c3ccc(C(=O)N(C)C)c(Cl)n3)CC2)C(F)(F)F)c1 [Example 1-15, (R)-2-chloro-N,N-dimethyl-6-(4-(3-(3,3,3-trifluoro-2-hydroxy-N-methyl-2-m-tolylpropanamido)propyl)piperidin-1-yl)nicotinamide]
16 | 179 | 54 | – | 1 | No IP | Cc1cccc([C@](O)(C(=O)N(C)CCCC2CCN(c3ccc(C(=O)N(C)C)c(Cl)n3)CC2)C(F)(F)F)c1 [Example 1-16, (S)-2-chloro-N,N-dimethyl-6-(4-(3-(3,3,3-trifluoro-2-hydroxy-N-methyl-2-m-tolylpropanamido)propyl)piperidin-1-yl)nicotinamide]
17 | 330 | 60 | – | 9 | No IP | CN(C)C(=O)c1ccc(N2CCC(CCCN(C)C(=O)[C@@](C)(O)c3ccccc3)CC2)nc1Cl [Example 1-21, (S)-2-chloro-6-(4-(3-(2-hydroxy-N-methyl-2-phenylpropanamido)propyl)piperidin-1-yl)-N,N-dimethylnicotinamide]

Reference: patent US10961215B2, “N-aryl and N-heteroaryl piperidine derivatives as liver X receptor beta agonists, compositions, and their use” (Merck Sharp & Dohme Corp., priority 2016, dated 2021)
